Reference: US11730725B2 (Tesaro, Inc., priority 2017, dated 2023)
Where two headings read alike, the source gives them in different places.

Assays:
[1] = drug substance, crystalline solid
tumor models [2] = test system: tumor models
[3] = test system: platinum-sensitive recurrent epithelial ovarian, fallopian tube, or primary peritoneal cancer; settings: niraparib vs placebo
Description: All patients had received at least two prior platinum-containing regimens and were in response (complete or partial) to their most recent platinum-based regimen. Eligible patients were assigned to one of two cohorts based on the results of a germline BRCA mutation test. […] Randomization occurred within 8 weeks of the last dose of the most recent platinum-containing regimen. […] Clinic visits occurred each cycle (4 weeks±3 days). […] Prior to unblinding of the study, tumors of patients randomized to the non-gBRCAmut cohort were tested for the presence of homologous recombination deficiency (HRD) using the Myriad myChoice® HRD test, which evaluates three independent biomarkers of tumor genome instability: loss of heterozygosity, telomeric allelic imbalance, and large-scale state transitions. Tumors with homologous recombination deficiencies and those with somatic BRCA mutations were defined as HRD positive (HRDpos). The primary efficacy analysis for PFS was prospectively defined and assessed for the gBRCAmut cohort. The primary efficacy analysis for PFS was prospectively defined and assessed for the non-gBRCAmut cohort with a hierarchical testing schema. In the first step, PFS was assessed in the group of patients with HRDpos tumors and if significant, PFS was assessed in the overall non-gBRCAmut cohort. Secondary efficacy endpoints included chemotherapy-free interval (CFI), time to first subsequent therapy (TFST), PFS after the first subsequent therapy (PFS2), time to second subsequent therapy (TSST) and OS (overall survival).

tumor models [4] = assay: animal or person; settings: read-out: PARP inhibition

Structure (SMILES) | hygroscopicity [1] | tumor regression (tumor models [2]; 50 mg/kg, daily dosing) | tumor regression (tumor models [2]; dose of 75 mg/kg, same model) | tumor regression (tumor models [2]; dosing switched from 75 mg/kg to 50 mg/kg) | CFI HR ([3]; gBRCAmut cohort) | TFST HR ([3]; gBRCAmut cohort) | CFI HR ([3]; non-gBRCAmut cohort) | TFST HR ([3]; non-gBRCAmut cohort) | inhibition at 50 mg/kg (tumor models [4])
Cc1ccc(S(=O)(=O)O)cc1.NC(=O)c1cccc2cn(-c3ccc([C@@H]4CCCNC4)cc3)nc12 [Niraparib tosylate monohydrate, 2-{4-[(3S)-piperidin-3-yl]phenyl}-2H-indazole 7-carboxamide 4-methylbenzenesulfonate hydrate (1:1:1)] | non-hygroscopic | – | – | – | – | – | – | – | –
NC(=O)c1cccc2cn(-c3ccc([C@@H]4CCCNC4)cc3)nc12 [Niraparib] | – | tumor regression | did not result in tumor regression | tumor regression was achieved | 0.26 | 0.31 | 0.50 | 0.55 | > 90%
